According to patent publication US20030129629A1, “Methods and compositions for the identification, assessment, prevention, and therapy of human cancers” (Millennium Pharmaceuticals, Inc., priority 2000, published 2003):

System: 60 cancer cell lines (NCI 60 cancer cell line series)
Test: NCI-DTP in vitro cancer screen, sulforhodamine B (SRB) growth inhibition, 48 hour exposure
Assay type: cell-based, human
Procedure: Cancer Cell Line Preparation. Sixty cancer cell lines were obtained from the National Cancer Institute Developmental Therapeutics Program (NCI-DTP). Procedures for growing cells and testing compounds have been described previously (Scudiero et al., Cancer Res. 1988, 48:4827-4833; Stinson et al., Anticancer Res.; Myers et al., Electrophoresis 1997, 18:647-653). Cells are plated on day 0 at a density individualized for each cell line so that they will generally be sub-confluent at the end of the assay period. On day 1, a compound is added in the format for a duplicate-well, 5-dose, ten-fold interval dose response study.
No-drug, no-cell and no-growth controls are included. On day 3 the cells are processed for staining with sulforhodamine B (SRB), which reflects the amount of cell mass present at the end of a 48 hour exposure to the test agent. From dose response curves based on the SRB data, various parameters can be determined. […] More precisely, the quantity used in the calculation to be described is the potency measure −log{GI50}.
Activity database (A). […] This subset of compounds was selected from the larger 23,000 compound database available from the DTP. The compounds were selected on the basis of their known mechanism of action and chemical structure. The average potency −log{GI50} was extracted from the comma-delimited text files available through the Web at http://www.nci.nih.gov/intra/lmp/jnwbio.html. Subsequently, these −log{GI50} values were inspected manually and classified as indicating either Low, Medium or High sensitivity to each compound.

## NC(=O)NO [Hydroxyurea]
Breast BT-549 CL5013
  classification of cell line as Low(1), Medium(2), High(3) sensitivity to compound: 1
Breast HS-578T CL5006
  classification of cell line as Low(1), Medium(2), High(3) sensitivity to compound: 2
Breast MCF7(I) CL5001
  classification of cell line as Low(1), Medium(2), High(3) sensitivity to compound: 2
Breast MCF7/ADRr CL5002
  classification of cell line as Low(1), Medium(2), High(3) sensitivity to compound: 2
Breast MDA-MB-231 CL5005
  classification of cell line as Low(1), Medium(2), High(3) sensitivity to compound: 1
Breast MDA-MB-435 CL5011
  classification of cell line as Low(1), Medium(2), High(3) sensitivity to compound: 1
Breast MDA-N CL5012
  classification of cell line as Low(1), Medium(2), High(3) sensitivity to compound: 1
Breast T-47D CL5014
  classification of cell line as Low(1), Medium(2), High(3) sensitivity to compound: 1
CNS SF-268 CL12014
  classification of cell line as Low(1), Medium(2), High(3) sensitivity to compound: 2
CNS SF-295 CL12015
  classification of cell line as Low(1), Medium(2), High(3) sensitivity to compound: 3
CNS SF-539 CL12016
  classification of cell line as Low(1), Medium(2), High(3) sensitivity to compound: 3
CNS SNB-19 CL12002
  classification of cell line as Low(1), Medium(2), High(3) sensitivity to compound: 1
CNS SNB-75(I) CL12005
  classification of cell line as Low(1), Medium(2), High(3) sensitivity to compound: 2
CNS U251(I) CL12009
  classification of cell line as Low(1), Medium(2), High(3) sensitivity to compound: 2
Colon COLO-250 CL4010
  classification of cell line as Low(1), Medium(2), High(3) sensitivity to compound: 1
Colon HCC-2998 CL4002
  classification of cell line as Low(1), Medium(2), High(3) sensitivity to compound: 2
Colon HCT-15 CL4015
  classification of cell line as Low(1), Medium(2), High(3) sensitivity to compound: 2
Colon HCT-116 CL4003
  classification of cell line as Low(1), Medium(2), High(3) sensitivity to compound: 2
Colon HT29(I) CL4001
  classification of cell line as Low(1), Medium(2), High(3) sensitivity to compound: 2
Colon KM12 CL4017
  classification of cell line as Low(1), Medium(2), High(3) sensitivity to compound: 2
Colon SW-620 CL4009
  classification of cell line as Low(1), Medium(2), High(3) sensitivity to compound: 2
Leukemia CCRF-CEM(I) CL7003
  classification of cell line as Low(1), Medium(2), High(3) sensitivity to compound: 3
Leukemia HL-60(I) CL7008
  classification of cell line as Low(1), Medium(2), High(3) sensitivity to compound: 3
Leukemia K562(I) CL7005
  classification of cell line as Low(1), Medium(2), High(3) sensitivity to compound: 2
Leukemia MOLT-4 CL7006
  classification of cell line as Low(1), Medium(2), High(3) sensitivity to compound: 3
Leukemia RPMI-8226(I) CL7010
  classification of cell line as Low(1), Medium(2), High(3) sensitivity to compound: 3
Leukemia SR CL7019
  classification of cell line as Low(1), Medium(2), High(3) sensitivity to compound: 3
Melanoma LOX IMVI CL10001
  classification of cell line as Low(1), Medium(2), High(3) sensitivity to compound: 2
Melanoma M14 CL10014
  classification of cell line as Low(1), Medium(2), High(3) sensitivity to compound: 2
Melanoma MALME-3M CL10002
  classification of cell line as Low(1), Medium(2), High(3) sensitivity to compound: 2
Melanoma SK-MEL-2 CL10005
  classification of cell line as Low(1), Medium(2), High(3) sensitivity to compound: 1
Melanoma SK-MEL-5 CL10007
  classification of cell line as Low(1), Medium(2), High(3) sensitivity to compound: 2
Melanoma SK-MEL-28 CL10008
  classification of cell line as Low(1), Medium(2), High(3) sensitivity to compound: 1
Melanoma UACC-62 CL10020
  classification of cell line as Low(1), Medium(2), High(3) sensitivity to compound: 3
Melanoma UACC-257 CL10021
  classification of cell line as Low(1), Medium(2), High(3) sensitivity to compound: 1
NSCLC A549/ATCC CL1004
  classification of cell line as Low(1), Medium(2), High(3) sensitivity to compound: 2
NSCLC EKVX CL1008
  classification of cell line as Low(1), Medium(2), High(3) sensitivity to compound: 1
NSCLC HOP-62 CL1026
  classification of cell line as Low(1), Medium(2), High(3) sensitivity to compound: 2
NSCLC HOP-92 CL1029
  classification of cell line as Low(1), Medium(2), High(3) sensitivity to compound: 2
NSCLC NCI-H23(I) CL1001
  sensitivity classification Low(1)/Medium(2)/High(3): 2
NSCLC NCI-H226 CL1013
  classification of cell line as Low(1), Medium(2), High(3) sensitivity to compound: 2
NSCLC NCI-H332M CL1017
  sensitivity classification Low(1)/Medium(2)/High(3): 1
NSCLC NCI-H460 CL1021
  sensitivity classification Low(1)/Medium(2)/High(3): 3
NSCLC NCI-H522 CL1003
  sensitivity classification Low(1)/Medium(2)/High(3): 2
Ovarian IGROV1 CL6010
  sensitivity classification Low(1)/Medium(2)/High(3): 2
Ovarian OVCAR-3 CL6001
  sensitivity classification Low(1)/Medium(2)/High(3): 2
Ovarian OVCAR-4 CL6002
  sensitivity classification Low(1)/Medium(2)/High(3): 1
Ovarian OVCAR-5 CL6003
  sensitivity classification Low(1)/Medium(2)/High(3): 2
Ovarian OVCAR-8 CL6005
  sensitivity classification Low(1)/Medium(2)/High(3): 2
Ovarian SK-OV-3 CL6011
  sensitivity classification Low(1)/Medium(2)/High(3): 1
Prostate DU-145 CL11003
  sensitivity classification Low(1)/Medium(2)/High(3): 2
Prostate PC-3(I) CL11001
  sensitivity classification Low(1)/Medium(2)/High(3): 2
Renal 786-0 CL9018
  sensitivity classification Low(1)/Medium(2)/High(3): 2
Renal A498 CL9013
  sensitivity classification Low(1)/Medium(2)/High(3): 2
Renal ACHN CL9023
  sensitivity classification Low(1)/Medium(2)/High(3): 3
Renal CAKI-1 CL9015
  sensitivity classification Low(1)/Medium(2)/High(3): 3
Renal RXF-393 CL9016
  sensitivity classification Low(1)/Medium(2)/High(3): 2
Renal SN12C CL9008
  sensitivity classification Low(1)/Medium(2)/High(3): 2
Renal TK10 CL9024
  sensitivity classification Low(1)/Medium(2)/High(3): 1
Renal UO-31 CL9004
  sensitivity classification Low(1)/Medium(2)/High(3): 2
